One substance from patent US20210341448A1, “SCREENING METHOD FOR THERAPEUTIC DRUG OR PROPHYLACTIC DRUG FOR TAUOPATHY AND DIAGNOSTIC METHOD FOR TAUOPATHY” (National Center for Geriatrics and Gerontology, priority 2018, published 2021) can be followed below.

The subject of test [1] is brain slice specimen (hippocampus/entorhinal cortex complex). The experiment in a line: Measurement of synapse transmission efficiency (fiber-volley/fEPSP) in brain slice specimens. Conditions: aging mouse brain slice exposed to 10 μg/ml for 2 to 3 hours, vs aCSF negative control; p<0.0001. How it is done: Brain slice specimens from mice were prepared by the following procedure to evaluate impacts by the tau oligomer on synapse transmission efficiency. 20- to 23-month-old C57BL/6 mice (C57BL/6J or C57BL/6N, male) were cervically dislocated and decapitated to isolate the brain. The obtained brain was thoroughly cooled in aCSF (124 mM of NaCl, 3 mM of KCl, 26 mM of NaHCO3, 1.25 mM of NaH2PO4, 2 mM of CaCl2, 1 mM of MgSO4, 10 mM of D-glucose) bubbled with a 95% O2/5% CO2 mixed gas, then dissected at the center of the cerebrum along the coronal plane, and further the dissected posterior site of the brain was sliced along the horizontal cross sections to a thickness of 350 μm using a vibratome (Leica, VT-1200S). […]
The brain slice specimen was moved to a measurement chamber through which aCSF was perfused, and electric pulse stimulation of 1.5, 2, 3, or 4 nA was applied to record induced potential changes for the measurement of synapse strength from […]. […] The recorded waveform was analyzed using a self-made analysis software to calculate an amplitude of fiber-volley and an amplitude of excitatory postsynaptic potential (fEPSP) at each electric pulse stimulation.

Another test addresses T1, NMDAR (Mus musculus, UniProt P35436+P35438+Q01097).
T1 construct: from tissue
The experiment in a line: Coimmunoprecipitation of tau and NMDAR with anti-tau antibody (TauC). Type of test: binding. Conditions: tau knockout brain slice exposed to tau oligomer sample, IP: TauC, western blot anti-NR1. How it is done:
Whether or not the tau oligomers directly bind and interact with NMDARs was tested by the coimmunoprecipitation. The tau-knockout-brain slice specimens exposed to the tau oligomer sample prepared by the procedure of the above (2-1) and (2-2) was homogenized in 50-fold volume of the lysis buffer (4 mM of HEPES, 2 mM of EGTA, 0.32 M of sucrose, 1% Protease Inhibitor Cocktail, 1% Phosphatase Inhibitor Cocktail (Nacalai Tesque Inc., #07575-51)) and was centrifuged at 4° C., 12,000×g for 15 minutes to thereby collect pellets. The obtained pellets were dissolved in a 0.1% Triton X-100/TBS solution (25 mM of Tris-HCl, 150 mM of NaCl, 1 mM of EDTA, 1% NP-40, 5% glycerol, 0.1% Triton X-100, pH 7.4) and the resultant was used as a membrane protein solution. Coimmunoprecipitation on the obtained membrane protein solution was carried out by using an anti-tau antibody (TauC) (Dako, #A0024) (1:2000 dilution) and Pierce Direct Magnetic IP/Co-IP Kit (Thermo Fisher Scientific, #88828), in accordance with the recommended protocol by the kit. The collected coimmunoprecipitation samples were electrophoresed and then NMDAR was detected by the western blot. The antibody used was an anti-NR1 subunit antibody (Merck Millipore, #MAN363) (1:2000 dilution).
(In general: Immunoblotting shows a protein as a band on a membrane.)

The subject of the next test is NMDA receptor. As to the kind of experiment: NMDAR-based sandwich ELISA. Type of test: binding, mouse. To be noted: tau oligomer solution of 10^−11 g/ml or less.
The next test concerns membrane protein (NMDAR). The experiment in a line: Membrane protein-based sandwich ELISA. Type of test: binding, mouse. How it is done:
Pellets of the membrane protein obtained from tau knockout brain by the procedure of the above (7-1) were dissolved in 2% cholic acid or 1% deoxycholate/buffer (50 mM of HEPES, 150 mM of NaCl, pH 7.4), and the solution was centrifuged at 4° C., 150,000×g for 30 minutes to thereby collect the supernatant to use as a membrane protein solution. The obtained membrane protein solution was applied to an ELISA plate (Sumitomo Bakelite Co., Ltd., MS-8596F) and incubated at 4° C. for 60 minutes to thereby coat the plate with the membrane protein. After washing with wash solution (0.004 to 0.008% MNG-3, 50 mM of HEPES, pH 7.4), blocking was done by adding 1% FBS-containing wash solution and incubating at 4° C. for 60 minutes. The solvent of the HT-tau oligomer sample prepared in the above (1-4) was replaced with the wash solution using a protein concentrator (10K MWCO, Pierce, 88526) to thereby prepare a tau oligomer solution of 10^−16 to 10^−6 g/ml. These solutions were applied to the plate and incubated at 4° C. for 15 to 60 minutes. Then, the plate was washed thoroughly with the wash solution and a 5% skim milk-containing wash solution was added, followed by incubating at room temperature for 30 minutes to thereby block the protein. After washing using the wash solution, an anti-HaloTag antibody/wash solution (1:1000 dilution) was added and incubated at room temperature for 30 minutes. Subsequently, the plate was washed with the wash solution, an HRP-labelled secondary antibody/wash solution (Invitrogen, A27036) (1:5000 dilution) was added and incubated at room temperature for 30 minutes. Then, chromogenic reactions were carried out using an Ultra TMB solution (Thermo Fisher Scientific, 34028) to detect the tau oligomers bound to the membrane protein.
In general terms: ELISA stands for enzyme-linked immunosorbent assay.

T1 sequence (P35436 23-1464, other chains not shown): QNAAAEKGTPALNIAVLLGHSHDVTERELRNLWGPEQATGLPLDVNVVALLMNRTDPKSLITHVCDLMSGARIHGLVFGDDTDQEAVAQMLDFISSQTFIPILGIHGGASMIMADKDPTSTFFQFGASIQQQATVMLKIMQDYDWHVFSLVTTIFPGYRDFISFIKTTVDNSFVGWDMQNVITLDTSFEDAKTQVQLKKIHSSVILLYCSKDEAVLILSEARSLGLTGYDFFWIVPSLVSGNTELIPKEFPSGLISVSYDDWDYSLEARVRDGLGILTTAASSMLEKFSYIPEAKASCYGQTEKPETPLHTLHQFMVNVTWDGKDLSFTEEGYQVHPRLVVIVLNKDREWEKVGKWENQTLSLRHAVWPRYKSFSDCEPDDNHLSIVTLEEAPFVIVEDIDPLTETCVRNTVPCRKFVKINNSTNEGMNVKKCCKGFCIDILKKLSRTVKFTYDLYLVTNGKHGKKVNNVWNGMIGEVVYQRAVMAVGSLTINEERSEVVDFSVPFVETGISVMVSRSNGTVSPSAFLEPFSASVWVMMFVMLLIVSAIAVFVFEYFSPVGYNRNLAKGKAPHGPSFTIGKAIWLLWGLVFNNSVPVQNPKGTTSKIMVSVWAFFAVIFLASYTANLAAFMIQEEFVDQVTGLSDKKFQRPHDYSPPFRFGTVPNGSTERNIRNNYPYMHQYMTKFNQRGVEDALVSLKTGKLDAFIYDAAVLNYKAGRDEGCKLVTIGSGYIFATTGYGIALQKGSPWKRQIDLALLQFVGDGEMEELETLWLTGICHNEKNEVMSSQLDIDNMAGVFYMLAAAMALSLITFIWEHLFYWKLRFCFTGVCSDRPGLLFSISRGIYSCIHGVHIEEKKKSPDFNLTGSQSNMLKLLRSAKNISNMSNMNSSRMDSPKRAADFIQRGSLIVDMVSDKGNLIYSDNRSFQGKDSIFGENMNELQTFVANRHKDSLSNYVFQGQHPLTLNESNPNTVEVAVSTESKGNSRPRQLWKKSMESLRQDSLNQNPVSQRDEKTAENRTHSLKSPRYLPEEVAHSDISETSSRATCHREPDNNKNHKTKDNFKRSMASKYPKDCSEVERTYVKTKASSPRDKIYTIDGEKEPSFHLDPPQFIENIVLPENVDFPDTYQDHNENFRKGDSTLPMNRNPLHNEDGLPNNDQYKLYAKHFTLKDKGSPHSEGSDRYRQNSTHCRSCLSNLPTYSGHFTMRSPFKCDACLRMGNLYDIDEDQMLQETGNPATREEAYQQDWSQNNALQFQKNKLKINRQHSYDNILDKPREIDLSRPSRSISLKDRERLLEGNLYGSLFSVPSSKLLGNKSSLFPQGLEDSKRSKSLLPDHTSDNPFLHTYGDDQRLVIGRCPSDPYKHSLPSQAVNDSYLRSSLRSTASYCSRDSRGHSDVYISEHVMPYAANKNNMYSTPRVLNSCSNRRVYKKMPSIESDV
T1 sequence (Q01097 27-1482, other chains not shown): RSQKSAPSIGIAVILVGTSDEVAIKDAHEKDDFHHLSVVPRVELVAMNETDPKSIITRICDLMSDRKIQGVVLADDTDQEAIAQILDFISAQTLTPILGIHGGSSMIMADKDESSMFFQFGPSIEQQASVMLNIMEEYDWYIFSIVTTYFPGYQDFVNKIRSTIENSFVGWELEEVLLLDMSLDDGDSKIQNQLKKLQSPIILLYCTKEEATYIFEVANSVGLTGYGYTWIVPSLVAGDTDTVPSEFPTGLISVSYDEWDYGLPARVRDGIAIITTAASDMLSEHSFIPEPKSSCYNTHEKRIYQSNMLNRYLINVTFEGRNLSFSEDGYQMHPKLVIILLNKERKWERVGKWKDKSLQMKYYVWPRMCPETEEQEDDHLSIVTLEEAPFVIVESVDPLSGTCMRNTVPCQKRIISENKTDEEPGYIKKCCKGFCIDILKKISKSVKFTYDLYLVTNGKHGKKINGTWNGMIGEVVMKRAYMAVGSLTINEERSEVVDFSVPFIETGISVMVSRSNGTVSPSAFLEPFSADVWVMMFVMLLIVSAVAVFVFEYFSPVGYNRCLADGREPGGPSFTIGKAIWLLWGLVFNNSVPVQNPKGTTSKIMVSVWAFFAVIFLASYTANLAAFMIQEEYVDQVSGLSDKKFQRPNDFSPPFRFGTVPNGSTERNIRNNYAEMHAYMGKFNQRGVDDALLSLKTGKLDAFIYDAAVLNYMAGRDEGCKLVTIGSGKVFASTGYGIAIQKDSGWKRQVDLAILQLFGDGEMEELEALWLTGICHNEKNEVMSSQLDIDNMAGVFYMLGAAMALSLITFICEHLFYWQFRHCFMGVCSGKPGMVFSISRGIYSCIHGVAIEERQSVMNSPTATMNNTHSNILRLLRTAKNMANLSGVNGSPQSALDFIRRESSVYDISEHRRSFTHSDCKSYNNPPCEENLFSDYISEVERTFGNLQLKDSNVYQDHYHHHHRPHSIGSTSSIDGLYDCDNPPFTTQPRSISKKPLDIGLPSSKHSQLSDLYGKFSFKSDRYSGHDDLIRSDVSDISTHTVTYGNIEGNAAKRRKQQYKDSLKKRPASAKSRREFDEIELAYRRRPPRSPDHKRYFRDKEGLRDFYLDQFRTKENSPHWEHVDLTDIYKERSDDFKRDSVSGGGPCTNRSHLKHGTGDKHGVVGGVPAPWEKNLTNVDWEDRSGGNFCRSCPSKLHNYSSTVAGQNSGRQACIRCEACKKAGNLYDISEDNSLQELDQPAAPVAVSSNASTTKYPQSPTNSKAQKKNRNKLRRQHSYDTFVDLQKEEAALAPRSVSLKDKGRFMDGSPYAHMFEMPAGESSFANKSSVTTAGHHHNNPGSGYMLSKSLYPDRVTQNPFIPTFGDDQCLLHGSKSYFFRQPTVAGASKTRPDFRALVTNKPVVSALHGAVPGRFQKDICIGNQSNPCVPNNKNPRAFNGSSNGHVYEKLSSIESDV

Regarding “tau oligomer: polymer of human tau 2N4R monomers, polymerized with mouse brain extract and ATP, collected as pellets”, the “synapse transmission efficiency (fiber-volley/fEPSP ratio)” value in test [1] is given as “significantly reduced”. In the test with NMDAR, the “coimmunoprecipitation of NR1 subunit with tau” value is “clear band of the NR1 subunits was detected”. In the test on NMDA receptor, the “binding of the tau oligomer to the NMDA receptor” value is reported as “increased in a concentration-dependent manner”. In the test on membrane protein (NMDAR) (tau oligomer solution of 10^−8 g/ml or higher), the “amount of tau oligomer bound to membrane protein” value was “increased in a concentration-dependent manner”. The “binding of the tau oligomer to membrane protein” value in the test on membrane protein (NMDAR) (tau oligomer solution of 10^−11 g/ml or lower) is reported as “detected”.
